Reference: publication PMC12291762 (Antioxidants, 2025)

Columns and labels:
[1] = system: carrageenan-induced rat paw edema; test: Carrageenan-induced rat paw edema model of acute inflammation; format: in vivo, Wistar albino rats
Procedure: Inflammation was induced in all rats by an intraplantar injection of 100 μL of freshly prepared 1% carrageenan solution in distilled water into the left hind paw. A total of 56 male Wistar albino rats were randomly divided into five experimental groups (n = 40 rats, 8 rats per subgroup) and two control groups (n = 16 rats, 8 rats per subgroup).
The experimental groups consisted of rats that received synthesized compounds via intraperitoneal injection immediately following carrageenan administration. The solutions of the investigated molecules were prepared by dissolving the compound in distilled water with the addition of a few drops of Tween 80 [18], whereby each rat received 500 μL of the prepared solution. […] The negative control group included rats that received an intraperitoneal injection of the solvent solution (distilled water with a few drops of Tween 80) at the same time point.
To quantify the anti-edematous effect, the thickness of the left paw tissue of each rat was measured at specific time intervals: immediately before inflammation induction (moment 0) and at 1, 2, 3, and 4 h post-induction (moments 1, 2, 3, and 4, respectively). Tissue thickness was assessed in the middle of the rat paw using a digital vernier caliper (Aerospace, Beijing, China).

[2] = target: T1, COX-2 (Homo sapiens, UniProt P35354); test: Fluorometric COX-2 inhibitor screening kit; format: biochemical; conditions: mean ± standard error, three independent measurements
T1 construct: purchased Abcam ab283401
T1 sequence (P35354 18-604): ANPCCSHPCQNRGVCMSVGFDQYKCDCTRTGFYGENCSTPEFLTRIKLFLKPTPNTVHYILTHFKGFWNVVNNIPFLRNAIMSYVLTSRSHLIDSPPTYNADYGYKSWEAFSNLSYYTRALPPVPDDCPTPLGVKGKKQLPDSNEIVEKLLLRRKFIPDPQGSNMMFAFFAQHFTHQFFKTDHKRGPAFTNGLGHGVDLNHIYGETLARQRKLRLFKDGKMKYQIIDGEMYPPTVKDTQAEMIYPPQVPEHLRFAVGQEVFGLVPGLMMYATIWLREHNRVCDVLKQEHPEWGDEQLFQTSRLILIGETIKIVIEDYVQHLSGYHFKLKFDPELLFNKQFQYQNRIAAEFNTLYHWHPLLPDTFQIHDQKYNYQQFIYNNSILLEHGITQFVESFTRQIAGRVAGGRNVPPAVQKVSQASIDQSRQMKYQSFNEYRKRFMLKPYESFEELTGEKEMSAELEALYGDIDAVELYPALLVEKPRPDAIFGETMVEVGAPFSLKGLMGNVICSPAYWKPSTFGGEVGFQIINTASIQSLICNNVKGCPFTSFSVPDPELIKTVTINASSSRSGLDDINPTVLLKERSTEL
Procedure: The inhibitory activity of the tested compounds against COX-1 and COX-2 isoforms was assessed using fluorometric cyclooxygenase inhibitor screening kits (Catalog Numbers ab204698 and ab283401, respectively; Abcam, Cambridge, UK). These assays detect the formation of prostaglandin G2, a product of COX enzymatic activity, via fluorometric measurement.
Stock solutions of the test compounds were prepared at a concentration of 5 mM in DMSO and subsequently diluted with the same solvent to obtain the test solutions. For the assay preparation, 2 μL of each test solution was diluted with 8 μL of COX assay buffer. The solvent control (SC) consisted of 2 μL of DMSO and 8 μL of assay buffer, while the enzyme control (EC) contained 10 μL of assay buffer alone. Sample wells (S) received 10 μL of the diluted test solutions. All other steps were in accordance with the manufacturer’s protocol and the previously published article. Fluorescence was measured kinetically over a 10 min period at 25 °C, using the excitation and emission wavelengths of 535 nm and 587 nm, respectively. The percentage of inhibition was calculated as follows:(3) % Relative Inhibition=Slope of EC−Slope of S/Slope of EC×100
Fluorescence measurements were conducted on a BioTek Synergy LX multi-mode reader (Winooski, VT, USA).

[3] = system: systemic oxidative stress parameters; test: Systemic redox state (plasma, erythrocyte lysate) 24 h after carrageenan; format: in vivo, Wistar albino rats
Procedure: Following 24 h of carrageenan-induced paw edema inflammation model and intraperitoneal anesthesia induced by ketamine/xylazine (100/10 mg/kg of BW), the animals were sacrificed, while whole-blood samples and edema-affected paw tissues were isolated. After centrifugation of whole blood, plasma and erythrocyte lysate samples were separated for further examination of the applied compounds’ effects on the systemic redox balance state. Pro-oxidative markers including superoxide anion radical (O2∙^−), hydrogen peroxide (H2O2) nitrites (NO2^−), and index of lipid peroxidation measured as thiobarbituric acid (TBA) reactive substances (TBARS) were determined from plasma samples, while the antioxidant capacity, including superoxide dismutase (SOD) and catalase (CAT) activity, as well as the reduced glutathione (GSH) level were examined in erythrocyte lysate samples [46]. […] Edema-affected paw tissue samples were weighed (100 mg) and homogenized (OmniPrep™ multi-sample homogenizer, Omni International, Kennesaw, GA, USA) in 900 µL phosphate buffer on ice (pH = 7.4), and centrifuged at 12,000 rpm for 20 min. These supernatant samples were used for the determination of the aforementioned pro-oxidative and antioxidative parameters levels. All oxidative stress analyses were performed spectrophotometrically using a Shimadzu UV 1800 spectrophotometer (Kyoto, Japan).
Determination of the O2∙^− level was conducted by adding 950 µL of a Nitro Blue Tetrazolium (NBT) mixture with TRIS buffer in 50 µL of sample, measured at the 550 nm wavelength. The level of H2O2 was determined during the oxidation of phenol red by H2O2, which was catalyzed with horseradish peroxidase and measured at the 610 nm wavelength. Indirect measurement of nitrites was performed by the precipitation of samples with 30% sulfo-salicylic acid, followed by vortexing and centrifugation at 3000 rpm for 15 min. The equal volumes of isolated supernatant and Griess’ reagent (containing 1% sulfanilamide in 5% phosphoric acid/0.1% naphthalene ethylenediamine-dihydrochloride) were incubated for 10 min and measured at the 550 nm wavelength. The TBARS concentration was determined by adding 400 µL of sample to 200 µL of TBA in 0.05 M NaOH, followed by 15 min incubation at 100 °C. Measurement was performed at the 530 nm wavelength.
The epinephrine method was used for SOD determination. By adding 100 µL of sample, the same volume of epinephrine, and 1000 µL of carbonate buffer, the measurement was performed at the 470 nm wavelength. The determination of CAT activity was based on the preparation of a mixture containing 100 µL of sample, 50 µL of catalase buffer, and 1000 µL of 10 mM H2O2, which was measured at the 230 nm wavelength.

Question: Which results are given for `C[C@H](C(=O)NCCCC(=O)O)c1cccc(C(=O)c2ccccc2)c1` [Compound 5, (S)-4-(2-(3-benzoylphenyl)propanamido)butanoic acid]?
Answer: % of inhibition of paw edema, 1 h ([1]; 0.0315 mmol/kg i.p., 1 h, vs solvent group): 7.068%; Rat paw thickness, 1 h ([1]; 0.0315 mmol/kg i.p., 1 h post-carrageenan, mean ± SD): 5.52 ± 0.25 mm; % of inhibition of paw edema, 2 h ([1]; 0.0315 mmol/kg i.p., 2 h, vs solvent group): 17.122%; Rat paw thickness, 2 h ([1]; 0.0315 mmol/kg i.p., 2 h post-carrageenan, mean ± SD): 5.38 ± 0.48 mm; % of inhibition of paw edema, 3 h ([1]; 0.0315 mmol/kg i.p., 3 h, vs solvent group): 18.947%; Rat paw thickness, 3 h ([1]; 0.0315 mmol/kg i.p., 3 h post-carrageenan, mean ± SD): 5.00 ± 0.29 mm; % of inhibition of paw edema, 4 h ([1]; 0.0315 mmol/kg i.p., 4 h, vs solvent group): 27.647%; Rat paw thickness, 4 h ([1]; 0.0315 mmol/kg i.p., 4 h post-carrageenan, mean ± SD): 4.28 ± 0.37 mm; Rat paw thickness, 0 h ([1]; immediately before inflammation induction, mean ± SD): 3.46 ± 0.29 mm; IC50 [2]: > 100 µM; Systemic GSH level compared to untreated rats ([3]; erythrocyte lysate): significantly increased GSH level; Systemic SOD activity compared to Dex group ([3]; erythrocyte lysate): no statistical differences; Systemic H2O2 level compared to Dex group ([3]; plasma): did not differ significantly; Systemic O2∙− level compared to Dex group ([3]; plasma): no significant difference; Systemic O2∙− level compared to untreated (Sol) rats ([3]; plasma): significantly lower; Systemic TBARS level compared to Sol (untreated) rats ([3]; plasma): significantly reducing
